{
  "source": "paper PMC12661400",
  "about": "“Oral bioavailable ITRI-148 degrades androgen receptor variants and overcomes antiandrogen resistance in advanced prostate cancer” (Neoplasia (New York, N.Y.), 2025)",
  "key": {"LNCaP": {"system": "LNCaP", "assay": "MTT cell viability, 7 days", "format": "cell-based", "settings": "Homo sapiens, 168 h", "experimental": "(§1) Cells were seeded in 96-well plates and treated with drugs the next day. After 7 days, viability was assessed using MTT assay.\n(§2) (C) Western blot analysis of AR and AR-V7 in C4-2B and C4-2B/MDVR cells after 48-hour ITRI-148 treatment. […] DEGs were determined relative to DMSO or pLKO.1 vector control. […] RPL13A was used for normalization. […] AR, AR-V7, and PSA expression in the drug-treated cells were detected across treatment timepoints."}, "CWR22Rv1": {"system": "CWR22Rv1", "assay": "MTT cell viability, 7 days", "format": "cell-based", "settings": "168 h", "experimental": "as §1, §2"}, "PNT2": {"system": "PNT2", "assay": "MTT cell viability, 7 days", "format": "cell-based", "experimental": "as §1, §2"}, "LNCaP95": {"system": "LNCaP95", "assay": "MTT cell viability, 7 days", "format": "cell-based", "settings": "LNCaP-95, 168 h", "experimental": "as §1, §2"}, "C4-2B/MDVR": {"system": "C4-2B/MDVR", "assay": "MTT cell viability, 7 days", "format": "cell-based", "settings": "168 h", "experimental": "as §1, §2"}, "VCaP": {"system": "VCaP", "assay": "MTT cell viability, 7 days", "format": "cell-based", "settings": "Homo sapiens, 168 h", "experimental": "as §1, §2"}, "PC3": {"system": "PC3", "assay": "MTT cell viability, 7 days", "format": "cell-based", "experimental": "as §1, §2"}, "[1]": {"assay": "In vitro stability in plasma", "format": "in vitro ADME", "settings": "for Remaining of intact drug (%): 1 μM, incubation up to 4 hours; for half-life at 1 μM: read-out: Plasma Stability t1/2", "experimental": "The stability of ITRI-148 was assessed in plasma across four species: humans, dogs, rats, and mice. ITRI-148 added to pre-warmed plasma at 1 μM was maintained at the designated temperature, and aliquots were collected at 0, 0.5, 1, 2, and 4 hours after incubation. At each time point, 20 μL of the samples was taken to terminate the reaction, followed by LC-MS/MS analysis to determine the remaining compound concentration. Data from duplicated experiments was calculated and presented as mean ± SD."}, "[2]": {"assay": "Toxicokinetic profiling in rats", "format": "in vivo", "settings": "Sprague-Dawley, rat, plasma, po; for AUC: read-out: AUC24", "experimental": "Repeated-dose toxicity and toxicokinetic studies\nRepeated-dose oral toxicity study and toxicokinetic (TK) profiling was conducted in Sprague-Dawley rats. ITRI-148 was administered once daily using oral gavage at doses of 100, 300, 600, and 1000 mg/kg/day for 7 consecutive days, followed by a 7-day recovery period. Each dose group comprised 3 animals designated for toxicokinetic (TK) analysis and 6 animals for dose-range finding (DRF) evaluation. Clinical observations, body weights, and food consumption were monitored daily throughout the dosing and recovery periods. After the first (Day 0) and last (Day 6) dosing, serial blood samples were collected at the pose-dose time points of 0.5, 1, 2, 4, 7, 24, 48 and 72 hours for TK profiling analysis. Plasma concentrations of ITRI-148 were quantified using a validated LC-MS/MS method. Analysis was performed using a Sciex QTrap 4000 mass spectrometer coupled with a Shimadzu LC system. The chromatographic separation was achieved on a C18 reverse-phase column with a gradient elution of acetonitrile and 0.1% formic acid in water. The lower limit of quantification (LLOQ) […]\nwas 5 ng/mL. All samples were analyzed in duplicate. […]\nAll procedures were conducted in compliance with institutional animal care and use guidelines. […]\nTargeting androgen receptor and the variants by an orally bioavailable\nProteolysis Targeting Chimeras compound in castration resistant prostate cancer"}, "CWR22Rv1 cell": {"system": "CWR22Rv1 cell", "assay": "CWR22Rv1 cell viability after 3 days of 10 μM compound (linker screen)", "format": "cell-based", "settings": "72 h, CWR22Rv1, 10 μM compound"}, "[3]": {"settings": "100 mg/kg, 7-times repeated dosing 100 mg/kg"}, "[4]": {"settings": "100 mg/kg, single dosing 100 mg/kg"}, "[5]": {"settings": "300 mg/kg, 7-times repeated dosing 300 mg/kg"}, "[6]": {"settings": "300 mg/kg, single dosing 300 mg/kg"}, "[7]": {"settings": "600 mg/kg, 7-times repeated dosing 600 mg/kg"}, "[8]": {"settings": "600 mg/kg, single dosing 600 mg/kg"}, "[9]": {"settings": "1000 mg/kg, 7-times repeated dosing 1000 mg/kg"}, "[10]": {"settings": "1000 mg/kg, single dosing 1000 mg/kg"}},
  "note": "Like-named read-outs stand apart in the source and are kept apart here.",
  "data": [
    {"molecule": "O=C1CCC(N2C(=O)c3cccc(NCC(=O)N4CCC(N5CCC(C#Cc6ccc(C7CCN(C8=Nn9c(nnc9C(F)(F)F)CC8)CC7)cc6)CC5)CC4)c3C2=O)C(=O)N1", "note": "(stereo not shown) [ITRI-148]", "values": [
      {"measurement": "IC50", "setting": "LNCaP", "result": 170, "unit": "nM"},
      {"measurement": "IC50", "setting": "CWR22Rv1", "result": 2150, "unit": "nM"},
      {"measurement": "IC50", "setting": "PNT2; Homo sapiens, PNT2, MTT", "result": "> 10", "unit": "µM"},
      {"measurement": "sensitivity of cell viability", "setting": "PNT2; normal prostate epithelial cells (PNT2)", "result": "insensitive"},
      {"measurement": "IC50", "setting": "LNCaP95", "result": 1960, "unit": "nM"},
      {"measurement": "IC50", "setting": "C4-2B/MDVR", "result": 1600, "unit": "nM"},
      {"measurement": "IC50", "setting": "VCaP", "result": 890, "unit": "nM"},
      {"measurement": "sensitivity of cell viability", "setting": "PC3; AR-negative CRPC cells (PC3)", "result": "insensitive"},
      {"measurement": "IC50", "setting": "PC3; Homo sapiens, PC-3, PC3, MTT", "result": "> 10", "unit": "µM"},
      {"measurement": "Remaining of intact drug (%)", "setting": "[1]; dog plasma", "result": "79.4 ± 0.6", "unit": "%"},
      {"measurement": "half-life at 1 μM", "setting": "[1]; dog plasma", "result": "> 240", "unit": "min"},
      {"measurement": "Remaining of intact drug (%)", "setting": "[1]; human plasma", "result": "86.9 ± 5.2", "unit": "%"},
      {"measurement": "half-life at 1 μM", "setting": "[1]; human plasma", "result": "> 240", "unit": "min"},
      {"measurement": "Remaining of intact drug (%)", "setting": "[1]; rat plasma", "result": "62.1 ± 5.8", "unit": "%"},
      {"measurement": "half-life at 1 μM", "setting": "[1]; rat plasma", "result": "> 240", "unit": "min"},
      {"measurement": "AUC(0-t)", "setting": "[2]; [3]", "result": 8750, "unit": "ng·h/mL"},
      {"measurement": "Cmax", "setting": "[2]; [3]", "result": "561 ± 62.1", "unit": "ng/mL"},
      {"measurement": "AUC", "setting": "[2]; [3]", "result": 8330, "unit": "ng·h/mL"},
      {"measurement": "AUC(0-t)", "setting": "[2]; [4]", "result": 9300, "unit": "ng·h/mL"},
      {"measurement": "Cmax", "setting": "[2]; [4]", "result": "466 ± 13.6", "unit": "ng/mL"},
      {"measurement": "AUC", "setting": "[2]; [4]", "result": 7670, "unit": "ng·h/mL"},
      {"measurement": "AUC(0-t)", "setting": "[2]; [5]", "result": 20500, "unit": "ng·h/mL"},
      {"measurement": "Cmax", "setting": "[2]; [5]", "result": 1050, "unit": "ng/mL"},
      {"measurement": "AUC", "setting": "[2]; [5]", "result": 17000, "unit": "ng·h/mL"},
      {"measurement": "AUC(0-t)", "setting": "[2]; [6]", "result": 20100, "unit": "ng·h/mL"},
      {"measurement": "Cmax", "setting": "[2]; [6]", "result": "659 ± 184", "unit": "ng/mL"},
      {"measurement": "AUC", "setting": "[2]; [6]", "result": 13000, "unit": "ng·h/mL"},
      {"measurement": "AUC(0-t)", "setting": "[2]; [7]", "result": 35200, "unit": "ng·h/mL"},
      {"measurement": "Cmax", "setting": "[2]; [7]", "result": 1440, "unit": "ng/mL"},
      {"measurement": "AUC", "setting": "[2]; [7]", "result": 25200, "unit": "ng·h/mL"},
      {"measurement": "AUC(0-t)", "setting": "[2]; [8]", "result": 27100, "unit": "ng·h/mL"},
      {"measurement": "Cmax", "setting": "[2]; [8]", "result": "914 ± 296", "unit": "ng/mL"},
      {"measurement": "AUC", "setting": "[2]; [8]", "result": 15100, "unit": "ng·h/mL"},
      {"measurement": "AUC(0-t)", "setting": "[2]; [9]", "result": 56000, "unit": "ng·h/mL"},
      {"measurement": "Cmax", "setting": "[2]; [9]", "result": 1910, "unit": "ng/mL"},
      {"measurement": "AUC", "setting": "[2]; [9]", "result": 36600, "unit": "ng·h/mL"},
      {"measurement": "AUC(0-t)", "setting": "[2]; [10]", "result": 40400, "unit": "ng·h/mL"},
      {"measurement": "Cmax", "setting": "[2]; [10]", "result": 1000, "unit": "ng/mL"},
      {"measurement": "AUC", "setting": "[2]; [10]", "result": 17400, "unit": "ng·h/mL"},
      {"measurement": "viability at 10 µM", "setting": "CWR22Rv1 cell", "result": 1.71, "unit": "%"}
    ]}
  ]
}
